Source: US10765094B2, “Inflammation reporter system” (priority 2014, dated 2020)

Tests used:
[1] = tested on: mouse-derived macrophage-like cell line RAW264; test: Reporter activity in RAW264 cells transiently transfected with the reporter gene vector, luciferase luminescence measured with a luminometer; format: cell-based; conditions: LPS 2 μg/mL
Procedure: The gene vector constructed as above was transiently introduced into mouse-derived macrophage-like cell line RAW264.
For transfection, Effectene (Qiagen) was used, and the cells at 24 hours after transfection were collected and provided for experiments. To a culture of transiently expressing cells, LPS (Sigma #L2654) was added at a concentration of 2 μg/mL, and the amount of luciferase luminescence at 48 hours after addition was determined by being measured with a luminometer. For use as a control, an LPS-free group was provided. In addition, as a conventional reporter system detecting only IL-1β gene expression, a vector was prepared to have GL4 ligated downstream of a promoter for the IL-1β gene, and cells transfected with this vector were provided for the same test.

[2] = tested on: inflammation reporter mouse; test: Visualization of inflammatory reactions in the inflammation reporter transgenic mouse, bioimaging analyzer (IVIS); format: in vivo; conditions: LPS 3 mg/kg wt intraperitoneally; 0, 4 and 24 hours after administration
Procedure: The excised and purified gene vector was injected into 200 fertilized eggs at the pronucleus stage which had been taken from mice of the C57BL/6 strain, thereby obtaining 71 pups. The genomic DNA extracted from the body tissue of each pup was used for genotype analysis to thereby obtain 18 founder mice having the gene vector inserted into their genome. Four founder mice were each crossed with a wild-type mouse of the C57BL/6 strain to produce F1 generation mice, which were then examined for reporter molecule reaction when intraperitoneally administered with LPS (Sigma #L2654).
The inflammation reporter mouse thus established was intraperitoneally administered with LPS (Sigma #L2654) at a concentration of 3 mg/kg wt.

| Substance | reporter signals (amount of luciferase luminescence) upon LPS stimulation ([1]; 48 hours after addition, vs LPS-free group, cells transfected with vector of the present invention or of conventional type) | luciferase luminescence signals in the body [2] | improvement in sensitivity compared to the vector of conventional type ([1]; 48 hours, conventional vector = GL4 downstream of IL-1β gene promoter) [fold] |
| --- | --- | --- | --- |
| lipopolysaccharide [LPS] | significant increase in reporter signals | luminescence signals from luciferase were able to be captured from all tissues of the body | – |
| vector of the present invention: gene vector: IL-1β promoter/TK promoter, GL4 luciferase, IL-1β partial sequence (17-216 aa), CL1-PEST, SV40 polyA | – | – | ≥ 2 |
